Where two headings read alike, the source gives them in different places.
Tests used:
[1] = target: T1, PI3K α (Homo sapiens, UniProt P42336); test: In vitro PI3 kinase enzyme assay (alpha), ATP loss, bioluminescence; assay type: biochemical; conditions: read-out: PI3Kα ATP loss IC50;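 note: purified p110α/p85 heterodimer acting on PtdIns(4,5)P2 at room temperature, remaining ATP read by luminescence, inhibition scaled between compound-free wells with and without enzyme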
T1 construct: Full length p110 subunits of PI3K α, β and δ, N-terminally labeled with polyHis tag; polyHis (N); made in house; host or cells: Sf9 insect cells (baculovirus)

[2] = target: T2, PI3K β (Homo sapiens, UniProt P42338); test: In vitro PI3 kinase enzyme assay (beta), ATP loss, bioluminescence; assay type: biochemical; conditions: read-out: PI3Kβ ATP loss IC50;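 note: purified p110β/p85 heterodimer with PtdIns(4,5)P2 as acceptor, incubated at room temperature, leftover ATP read by luminescence, inhibition scaled to compound-free wells with and without enzyme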
T2 construct: Full length p110 subunits of PI3K α, β and δ, N-terminally labeled with polyHis tag; polyHis (N); made in house; host or cells: Sf9 insect cells (baculovirus)

[3] = tested on: phosphorylation of Serine 473 in Akt, HCT 116 human colon carcinoma cells; test: Cell-based phospho-AKT Ser473 assay (MSD sandwich immunoassay, IGF-1 stimulated); conditions: Homo sapiens
In short: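 Akt Ser473 phosphorylation was measured by MSD electrochemiluminescent sandwich immunoassay in lysates of HCT116 cells (16,000 cells/well). Cells received a compound dilution series for 2 h at 37 °C before a 15 min IGF-1 (100 ng/ml) stimulus, with IC50 calculated from the dose-response.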

[4] = HCT-116, HCT 116 cells, read-out: HCT 116 pAKT IC50
[5] = HCT-116, read-out: HCT 116 pAKT IC50

T2 sequence (P42338 whole entry): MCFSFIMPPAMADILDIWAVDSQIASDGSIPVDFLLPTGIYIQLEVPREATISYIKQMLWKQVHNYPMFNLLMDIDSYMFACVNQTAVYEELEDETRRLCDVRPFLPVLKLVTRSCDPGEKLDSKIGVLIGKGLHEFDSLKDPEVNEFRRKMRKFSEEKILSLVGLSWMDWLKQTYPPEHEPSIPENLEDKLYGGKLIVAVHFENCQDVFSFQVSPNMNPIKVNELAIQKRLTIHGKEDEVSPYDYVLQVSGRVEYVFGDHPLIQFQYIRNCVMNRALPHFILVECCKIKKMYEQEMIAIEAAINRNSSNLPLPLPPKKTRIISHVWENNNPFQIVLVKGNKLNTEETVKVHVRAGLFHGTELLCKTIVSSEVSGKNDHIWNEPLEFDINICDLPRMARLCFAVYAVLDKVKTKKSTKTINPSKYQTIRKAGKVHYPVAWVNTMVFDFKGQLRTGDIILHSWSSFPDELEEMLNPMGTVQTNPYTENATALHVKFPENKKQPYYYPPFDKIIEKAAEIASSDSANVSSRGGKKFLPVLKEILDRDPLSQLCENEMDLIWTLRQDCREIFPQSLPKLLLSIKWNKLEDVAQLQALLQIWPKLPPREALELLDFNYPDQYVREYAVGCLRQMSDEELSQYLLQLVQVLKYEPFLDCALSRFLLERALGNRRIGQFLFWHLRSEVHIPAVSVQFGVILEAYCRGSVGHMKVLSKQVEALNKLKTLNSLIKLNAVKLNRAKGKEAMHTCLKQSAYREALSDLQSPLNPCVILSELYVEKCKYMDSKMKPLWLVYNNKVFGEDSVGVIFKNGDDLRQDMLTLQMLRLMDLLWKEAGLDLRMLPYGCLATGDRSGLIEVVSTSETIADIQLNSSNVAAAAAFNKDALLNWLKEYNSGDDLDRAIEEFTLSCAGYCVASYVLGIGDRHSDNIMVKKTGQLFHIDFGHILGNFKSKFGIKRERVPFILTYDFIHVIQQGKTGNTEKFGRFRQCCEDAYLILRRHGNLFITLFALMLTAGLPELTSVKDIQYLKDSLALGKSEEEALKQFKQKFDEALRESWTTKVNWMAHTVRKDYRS
T2 sequence (P27986 whole entry partner): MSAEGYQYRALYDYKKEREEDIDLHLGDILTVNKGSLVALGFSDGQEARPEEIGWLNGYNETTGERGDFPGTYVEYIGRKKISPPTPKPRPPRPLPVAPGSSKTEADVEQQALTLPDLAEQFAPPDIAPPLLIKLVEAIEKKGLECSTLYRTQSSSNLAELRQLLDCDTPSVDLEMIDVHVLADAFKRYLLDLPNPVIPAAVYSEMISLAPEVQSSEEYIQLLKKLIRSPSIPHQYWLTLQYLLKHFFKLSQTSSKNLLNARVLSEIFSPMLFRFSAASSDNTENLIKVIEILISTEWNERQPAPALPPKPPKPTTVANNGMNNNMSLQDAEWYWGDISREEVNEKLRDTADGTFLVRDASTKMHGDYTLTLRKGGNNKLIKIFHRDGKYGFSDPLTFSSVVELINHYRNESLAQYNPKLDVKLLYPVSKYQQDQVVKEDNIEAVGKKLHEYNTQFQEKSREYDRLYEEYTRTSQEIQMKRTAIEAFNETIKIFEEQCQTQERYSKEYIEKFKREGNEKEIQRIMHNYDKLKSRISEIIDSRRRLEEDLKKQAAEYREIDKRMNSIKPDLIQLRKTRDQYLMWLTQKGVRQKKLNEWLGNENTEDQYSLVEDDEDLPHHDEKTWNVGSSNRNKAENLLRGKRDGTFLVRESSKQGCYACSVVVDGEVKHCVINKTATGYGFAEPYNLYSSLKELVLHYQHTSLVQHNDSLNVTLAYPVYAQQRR
T1 sequence (P42336 whole entry, species assumed): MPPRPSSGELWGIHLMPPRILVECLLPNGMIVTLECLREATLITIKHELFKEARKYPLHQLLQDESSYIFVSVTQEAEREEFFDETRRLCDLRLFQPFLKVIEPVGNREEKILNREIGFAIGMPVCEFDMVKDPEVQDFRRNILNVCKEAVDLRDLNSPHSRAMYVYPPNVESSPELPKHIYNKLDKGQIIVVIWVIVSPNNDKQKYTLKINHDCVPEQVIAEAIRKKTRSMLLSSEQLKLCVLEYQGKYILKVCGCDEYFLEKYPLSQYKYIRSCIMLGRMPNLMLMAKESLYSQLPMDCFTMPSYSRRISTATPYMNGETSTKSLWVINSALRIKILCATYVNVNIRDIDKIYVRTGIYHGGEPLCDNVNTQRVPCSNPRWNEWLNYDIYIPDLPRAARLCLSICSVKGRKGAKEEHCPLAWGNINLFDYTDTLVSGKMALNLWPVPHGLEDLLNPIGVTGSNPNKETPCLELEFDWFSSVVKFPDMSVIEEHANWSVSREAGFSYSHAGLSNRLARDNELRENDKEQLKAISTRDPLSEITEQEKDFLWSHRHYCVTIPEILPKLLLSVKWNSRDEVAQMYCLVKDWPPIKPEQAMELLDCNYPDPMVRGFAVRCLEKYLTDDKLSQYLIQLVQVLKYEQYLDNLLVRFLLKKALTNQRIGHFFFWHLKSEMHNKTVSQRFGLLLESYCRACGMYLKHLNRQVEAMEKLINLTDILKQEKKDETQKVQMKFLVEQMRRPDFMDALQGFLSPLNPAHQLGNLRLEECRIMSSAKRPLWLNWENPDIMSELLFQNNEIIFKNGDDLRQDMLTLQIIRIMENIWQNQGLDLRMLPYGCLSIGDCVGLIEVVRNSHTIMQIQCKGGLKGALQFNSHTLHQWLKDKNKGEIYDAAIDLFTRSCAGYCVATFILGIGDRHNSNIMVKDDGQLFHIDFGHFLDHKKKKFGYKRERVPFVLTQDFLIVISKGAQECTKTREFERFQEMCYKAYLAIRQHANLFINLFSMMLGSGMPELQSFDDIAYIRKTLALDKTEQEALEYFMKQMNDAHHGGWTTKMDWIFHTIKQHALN
T1 sequence (P27986 whole entry partner, species assumed): as the sequence (P27986 whole entry partner) above

SMILES	IC50 [1] [µM]	IC50 [2] [µM]	IC50 [3, 4] [µM]	IC50 [3, 5] [µM]
COCC(=O)Nc1nc2ccc(-c3cnc(Cl)c(NC(C)C)c3)cc2s1 [Example 144, N-(6-(6-chloro-5-((1-methylethyl)amino)-3-pyridinyl)-1,3-benzothiazol-2-yl)-2-methoxyacetamide]	0.112	1.57	0.723	
COc1ncc(-c2ccc3nc(NC(C)=O)sc3c2)cc1NC(C)C [Example 145, N-(6-(6-methoxy-5-((1-methylethyl)amino)-3-pyridinyl)-1,3-benzothiazol-2-yl)acetamide]	0.114	0.424	0.851	
COc1ccc(S(=O)(=O)Nc2cccc(-c3ccc4nc(NC(C)=O)sc4n3)c2)cc1 [Example 146, N-(5-(3-(4-methoxyphenylsulfonamido)phenyl)thiazolo[5,4-b]pyridin-2-yl)acetamide]	0.117	0.359		0.373
CC(C)Nc1cc(-c2ccc3nc(NC(=O)C[C@@H]4CCCO4)sc3c2)cnc1Cl [Example 151, N-(6-(6-chloro-5-((1-methylethyl)amino)-3-pyridinyl)-1,3-benzothiazol-2-yl)-2-((2S)-tetrahydro-2-furanyl)acetamide]	0.23	1.62	> 5	
CC(C)Nc1cc(-c2ccc3nc(N)sc3c2)cnc1Cl [Example 155, 6-(6-chloro-5-((1-methylethyl)amino)-3-pyridinyl)-1,3-benzothiazol-2-amine]	0.509	1.15	1.99	
Cc1ccc(S(=O)(=O)Nc2nnc(-c3ccc4nc(NC(=O)OC(C)(C)C)sc4c3)o2)cc1 [Example 166, tert-Butyl 6-(5-(4-methylphenylsulfonamido)-1,3,4-oxadiazol-2-yl)benzo[d]thiazol-2-ylcarbamate]	0.336	2.2	0.239	
CC(=O)Nc1nc2ccc(-c3cnc(Cl)c(NS(=O)(=O)C4CCCCC4)c3)cc2s1 [Example 171, N-(6-(6-chloro-5-(cyclohexanesulfonamido)pyridin-3-yl)benzo[d]thiazol-2-yl)acetamide]	0.0032	0.0263		0.0433
CC(=O)Nc1nc2ccc(-c3cnc(Cl)c(NS(=O)(=O)c4ccc(O)cc4)c3)cc2s1 [Example 174, N-(6-(6-chloro-5-(4-hydroxyphenylsulfonamido)pyridin-3-yl)benzo[d]thiazol-2-yl)acetamide]	0.0072	0.0123	0.0155	

The remaining compounds from weak to strong by IC50 [1], led by results:

IC50 [1] [µM]	IC50 [2] [µM]	IC50 [3, 4] [µM]	SMILES	IC50 [3, 5] [µM]
0.186	0.902	0.503	CC(=O)Nc1nc2ccc(-c3cncc(Cl)n3)cc2s1 [Example 150, N-(6-(6-chloro-2-pyrazinyl)-1,3-benzothiazol-2-yl)acetamide]	
0.151	1.36	0.881	COc1ccc(S(=O)(=O)c2cccc(-c3cc(F)c4nc(NC(C)=O)sc4c3)n2)cc1 [Example 148, N-(4-fluoro-6-(6-((4-methoxyphenyl)sulfonyl)-2-pyridinyl)-1,3-benzothiazol-2-yl)acetamide]	
0.149	5.68	0.44	CNc1ncc(-c2ccc3nc(NC(C)=O)sc3c2)cc1NC(C)C [Example 147, N-(6-(5-(isopropylamino)-6-(methylamino)pyridin-3-yl)benzo[d]thiazol-2-yl)acetamide]	
0.0137	0.0446	0.0041	CC(=O)Nc1nc2ccc(-c3cnc(Cl)c(NS(=O)(=O)c4ccc(C(C)(C)O)cc4)c3)cc2s1 [Example 161, N-(6-(6-chloro-5-(4-(2-hydroxypropan-2-yl)phenylsulfonamido)pyridin-3-yl)benzo[d]thiazol-2-yl)acetamide]	
0.003	0.0038	0.0038	COc1ccc(S(=O)(=O)Nc2cc(-c3ccc4nc(NC(C)=O)sc4c3)cnc2Cl)cc1 [Example 163, N-(6-(6-Chloro-5-(4-methoxyphenylsulfonamido)pyridin-3-yl)benzo[d]thiazol-2-yl)acetamide]	
